# Test results published in US20080033056A1 (Metaproteomics, LLC, priority 2006, published 2008).
# Marks after values point to notes of the source that are not given here.
# Columns and labels:
# [1] = test system: TNFα-treated 3T3-L1 adipocytes; assay: Adiponectin secretion from TNFα-treated 3T3-L1 adipocytes; type: cell-based, murine; details: 10 ng TNFα/ml
# Experimental: For two days, the cells were allowed grow to reach confluence. […] (3) 0.5 μM dexamethasone and (4) 10 μg/ml insulin (MDI medium). […] Adiponectin Assay—The adiponectin secreted into the medium was quantified using the Mouse Adiponectin Quantikine® Immunoassay kit with no modifications (R&D Systems, Minneapolis, Minn.). […] Statistical Calculations and Interpretation—All assays were preformed in duplicate. […] Differences among the doses and test agents were determined using the Student's t-test without correction for multiple comparisons; the nominal five percent probability of a type I error was selected.
# [2] = test system: LPS-stimulated 3T3-L1 adipocytes; assay: IL-6 secretion in LPS/3T3-L1 adipocytes; type: cell-based, murine; details: at the concentration of maximum inhibition, 100 ng LPS/ml, D5 3T3-L1; for IL-6 Index: indexed to LPS control
# [3] = test system: LPS-treated 3T3-L1 adipocytes; assay: Adiponectin secretion in LPS/3T3-L1 adipocytes; type: cell-based, murine; details: for % Stimulation of adiponectin secretion (maximum): at the concentration of maximum stimulation, NS = not significantly different from the LPS control; for adiponectin secretion: any dose tested
# db/db mice = assay: Non-fasting serum glucose and insulin in db/db diabetic mice; type: in vivo, mouse; details: three daily doses
# Experimental: The Model—Male, C57BLKS/J m^+/m^+Lepr^db (db/db) mice were used to assess the potential of the test materials to reduce fasting serum glucose or insulin concentrations. This strain of mice is resistant to leptin by virtue of the absence of a functioning leptin receptor.
# Testing Procedure—Test substances were administered daily by gavage in 0.2% Tween-80. Serum was collected from the retroorbital sinus before the initial dose and ninety minutes after the third and final dose. Non-fasting serum glucose was determined enzymatically by the mutarotase/glucose oxidase method and serum insulin was determined by a mouse specific ELISA.
# The Model—Male, C57BLKS/J m+/m+Leprdb (db/db) mice were used to assess the potential of the test materials to reduce fasting serum glucose or insulin concentrations. This strain of mice is resistant to leptin by virtue of the absence of a functioning leptin receptor.
# Testing Procedure—Test substances were administered daily by gavage in 0.2% Tween-80. […] Non-fasting serum glucose was determined enzymatically by the mutarotase/glucose oxidase method and serum insulin was determined by a mouse specific ELISA.
# 3T3-L1 adipocytes = assay: Lipogenesis in 3T3-L1 adipocytes (Oil Red O / BODIPY); type: cell-based, murine; details: relative to controls
# Experimental: Prior to experiments, cells were cultured in DMEM containing 10% FBS-HI added 50 units penicillin/ml and 50 μg streptomycin/ml, and maintained in log phase prior to experimental setup. Cells were grown in a 5% CO2 humidified incubator at 37° C. Components of the pre-confluent medium included (1) 10% FBS/DMEM containing 4.5 g glucose/L; (2) 50 U/ml penicillin; and (3) 50 μg/ml streptomycin. Growth medium was made by adding 50 ml of heat inactivated FBS and 5 ml of penicillin/streptomycin to 500 ml DMEM. This medium was stored at 4° C. Before use, the medium was warmed to 37° C. in a water bath.
# 3T3-T1 cells were seeded at an initial density of 6×10^4 cells/cm^2 in 24-well plates. For two days, the cells were allowed grow to reach confluence. Following confluence, the cells were forced to differentiate into adipocytes by the addition of differentiation medium; this medium consisted of (1) 10% FBS/DMEM (high glucose); (2) 0.5 mM methylisobutylxanthine; (3) 0.5 μM dexamethasone and (4) 10 μg/ml insulin (MDI medium). After three days, the medium was changed to post-differentiation medium consisting of 10 μg/ml insulin in 10% FBS/DMEM.
# AcE was partially dissolved in dimethyl sulfoxide (DMSO) and added to the culture medium to achieve a concentration of 50 μg/ml at Day 0 of differentiation and throughout the maturation phase (Days 6 or 7 (D6/7)). Whenever fresh media were added, fresh test material was also added. DMSO was chosen for its polarity and the fact that it is miscible with the aqueous cell culture media.
# Oil Red O Staining—Triglyceride content of D6/D7-differentiated 3T3-L1 cells was estimated with Oil Red O according to the method of Kasturi and Joshi [Kasturi, R. and Joshi, V. C. […] Monolayer cells were washed with PBS (phosphate buffered saline, Mediatech) and fixed with 10% formaldehyde for ten minutes. Fixed cells were stained with an Oil Red O working solution of three parts 0.6% Oil Red O/isopropanol stock solution and two parts water for one hour and the excess stain was washed once with water. The resulting stained oil droplets were extracted from the cells with isopropanol and quantified by spectrophotometric analysis at 540 nm (MEL312e BIO-KINETICS READER, Bio-Tek Instruments, Winooski, Vt.).
# Briefly, media were removed and cells were washed once with non-sterile PBS. A stock 1000× BODIPY/DMSO solution was made by dissolving 1 mg BODIPY in 1 ml DMSO (1,000 μg BODIPY/ml). […] After 15 min on an orbital shaker (DS-500, VWR Scientific Products, South Plainfield, N.J.) at ambient temperature, the cells were washed with 100 μl PBS followed by the addition of 100 μl PBS for reading for spectrofluorometric determination of BODIPY incorporation into the cells. […]
# [4] = test system: insulin-resistant 3T3-L1 adipocytes; assay: IL-6 secretion from insulin-resistant 3T3-L1 adipocytes; type: cell-based, murine
# Experimental: Statistical Calculations and Interpretation—All assays were preformed in duplicate. For statistical analysis, the effect of hops derivatives on adiponectin or IL-6 secretion was computed relative to the solvent control. Differences among the doses were determined using analysis of variance without correction for multiple comparisons; the nominal five percent probability of a type I error was selected.
# [5] = test system: A549 pulmonary epithelial cells; assay: PGE2 biosynthesis in A549 cells stimulated by mite dust allergen; type: cell-based, human; details: 10 μg/ml
# Experimental: The filtrate was termed mite dust allergen and used to test for induction of PGE2 biosynthesis in A549 pulmonary epithelial cells.
# Mite allergen was added to the culture medium to achieve a final concentration of 1000 ng/ml. Eighteen hours later, the media were sampled for PGE2 determination.
# [6] = test system: insulin-resistant 3T3-L1 adipocytes; assay: Adiponectin secretion from insulin-resistant 3T3-L1 adipocytes; type: cell-based, murine; details: 50.0 μg/ml; ratio of Adiponectin Index to IL-6 Index (Table 21)
# DBA/J mice = assay: Collagen induced rheumatoid arthritis murine model (arthritic index, histology, serum IL-6); type: in vivo, mouse; details: 10 mg/kg
molecule,measurement,setting,value
CCc1ccc(CCOc2ccc(CC3SC(=O)NC3=O)cc2)nc1 (stereo not shown) [Pioglitazone],maximum increase of adiponectin secretion over TNFα control,[1],80%
same,Adiponectin Index (maximum),[1]; Test/TNFα control,1.47
same,IL-6 Index,[2],0.37*
same,% Stimulation of adiponectin secretion (maximum),[3],12%
CN(C)C(=N)N=C(N)N [metformin],serum glucose relative to the controls,db/db mice,decreased
same,serum insulin relative to the controls,db/db mice,decreased
COc1cc(O)c(CC=C(C)C)c(O)c1C(=O)/C=C/c1ccc(O)cc1 [xanthohumol],lipogenic/adipogenic response,3T3-L1 adipocytes,comparable to indomethacin and troglitazone
same,IL-6 secretion,[4],Significant decreases in IL-6 secretion
Beta acids,Percent PGE2 Inhibition,[5],83%
same,lipogenic/adipogenic response,3T3-L1 adipocytes,comparable to indomethacin and troglitazone
Cc1c(C)c2c(c(C)c1O)CCC(C)(COc1ccc(CC3SC(=O)NC3=O)cc1)O2 (stereo not shown) [Troglitazone],maximum increase of adiponectin secretion over TNFα control,[1],51%
same,% Stimulation of adiponectin secretion (maximum),[3],15%
CC(C)CCC1=C(O)C(C(=O)C(C)C)=C(O)C(CCC(C)C)(CCC(C)C)C1=O [Hexahydro colupulone],lipogenic/adipogenic response,3T3-L1 adipocytes,failed to elicit a lipogenic response
COc1ccc2c(c1)c(CC(=O)O)c(C)n2C(=O)c1ccc(Cl)cc1 [Indomethacin],lipogenic/adipogenic response,3T3-L1 adipocytes,induced lipogenesis to a similar extent
same,% Inhibition of IL-6 secretion (maximum),[2],53* %
same,stimulation of adiponectin secretion,"[3]; LPS 100 ng/ml, […]",9%
same,% Stimulation of adiponectin secretion (maximum),[3],9%
O=C(O)c1ccccc1O [salicylic acid],IL-6 Index,[2],0.52*
same,adiponectin secretion,[3]; LPS 100 ng/ml,failed to induce adiponectin secretion
CC(C)CCC1=C(O)C(C(=O)C(C)C)=C(O)C(CCC(C)C)(CCC(C)C)C1=O [Hexahydrocolupulone (HHCL)],Adiponectin/IL-6,[6],0.60#
CC(=O)Oc1ccccc1C(=O)O [Aspirin],adiponectin secretion,[3]; LPS 100 ng/ml,failed to induce adiponectin secretion
C[C@]12C=CC(=O)C=C1CC[C@@H]1[C@@H]2[C@@H](O)C[C@@]2(C)[C@H]1CC[C@]2(O)C(=O)CO [prednisolone],reduction of serum IL-6 levels,DBA/J mice,reached a statistical significance
